Values quoted from earlier work as cited in patent publication US20060147391A1, “Composition for enhancing oral health” (priority 2002, published 2006).

System: oral microorganisms (intraoral bacteria such as Streptococcus mutans, Streptococcus sobrinus and Porphyromonas gingivalis)
Conditions: reported result in vitro (Korean publications, WO 00/67711)

Compound: CC(C)=CCC[C@@H](C)c1ccc(C)c(O)c1 [Xanthorrhizol]
- antibacterial activity against oral microorganisms: excellent antibacterial activity
